According to patent US7981903B2, “2-[2-{phenylamino}-1H-pyrrolo[2,3-D]pyrimidin-4-yl)amino] benzamide derivatives as IGF-1R inhibitors for the treatment of cancer” (GlaxoSmithKline LLC, priority 2007, dated 2011):

Columns and labels:
human IR (hIR) = molecular target: T1, human IR (hIR) (Homo sapiens, UniProt P06213); assay: TR-FRET kinase assay of purified hIR; type: biochemical; conditions: activated hIR 0.5 nM, 10 μM ATP, values given as pIC50 category
T1 construct: containing amino acid residues 979-1382 of human IR; made in house; host or cells: Sf9 cells (baculovirus), same process as hIGF1R
T1 sequence (P06213 979-1382): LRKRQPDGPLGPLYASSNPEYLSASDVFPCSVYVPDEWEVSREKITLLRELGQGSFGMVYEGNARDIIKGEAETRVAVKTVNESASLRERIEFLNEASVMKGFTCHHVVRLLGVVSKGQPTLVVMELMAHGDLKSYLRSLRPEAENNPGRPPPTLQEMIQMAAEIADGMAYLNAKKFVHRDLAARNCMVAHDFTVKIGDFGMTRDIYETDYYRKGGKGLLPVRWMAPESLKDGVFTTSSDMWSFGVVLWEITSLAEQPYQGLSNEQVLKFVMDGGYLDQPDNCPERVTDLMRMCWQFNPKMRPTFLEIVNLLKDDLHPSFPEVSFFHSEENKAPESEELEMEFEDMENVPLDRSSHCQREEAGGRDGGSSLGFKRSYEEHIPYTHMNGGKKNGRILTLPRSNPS

human IGF1R (hIGF1R) = molecular target: T2, human IGF1R (hIGF1R) (Homo sapiens, UniProt P08069); assay: TR-FRET kinase assay of purified hIGF1R; type: biochemical; conditions: activated hIGF1R 0.5 nM, 10 μM ATP, values given as pIC50 category, read-out: IGF-1R pIC50 (converted)
T2 construct: containing amino acid residues 957-1367 of human IGF1R; made in house; host or cells: Sf9 cells (baculovirus)
T2 sequence (P08069 957-1367): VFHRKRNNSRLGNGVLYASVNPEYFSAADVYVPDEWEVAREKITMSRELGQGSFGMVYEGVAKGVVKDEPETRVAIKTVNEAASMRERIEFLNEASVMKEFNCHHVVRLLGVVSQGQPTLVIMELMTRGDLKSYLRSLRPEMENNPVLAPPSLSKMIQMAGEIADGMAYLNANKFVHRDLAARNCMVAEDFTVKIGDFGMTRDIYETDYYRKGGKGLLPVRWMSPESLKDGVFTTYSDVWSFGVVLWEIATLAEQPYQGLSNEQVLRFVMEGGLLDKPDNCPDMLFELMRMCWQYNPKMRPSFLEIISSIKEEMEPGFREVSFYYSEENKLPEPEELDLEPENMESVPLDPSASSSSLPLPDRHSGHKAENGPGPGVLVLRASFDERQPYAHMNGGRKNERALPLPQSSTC

[1] = molecular target: T3, NIH-3T3 cells overexpressing human IGF-1R (Homo sapiens, UniProt P08069); assay: IGF-1R cellular autophosphorylation (DELFIA); type: cell-based
T3 construct: expressed in transfected cells; host or cells: NIH-3T3 (mouse fibroblasts)
T3 sequence (P08069 31-1367): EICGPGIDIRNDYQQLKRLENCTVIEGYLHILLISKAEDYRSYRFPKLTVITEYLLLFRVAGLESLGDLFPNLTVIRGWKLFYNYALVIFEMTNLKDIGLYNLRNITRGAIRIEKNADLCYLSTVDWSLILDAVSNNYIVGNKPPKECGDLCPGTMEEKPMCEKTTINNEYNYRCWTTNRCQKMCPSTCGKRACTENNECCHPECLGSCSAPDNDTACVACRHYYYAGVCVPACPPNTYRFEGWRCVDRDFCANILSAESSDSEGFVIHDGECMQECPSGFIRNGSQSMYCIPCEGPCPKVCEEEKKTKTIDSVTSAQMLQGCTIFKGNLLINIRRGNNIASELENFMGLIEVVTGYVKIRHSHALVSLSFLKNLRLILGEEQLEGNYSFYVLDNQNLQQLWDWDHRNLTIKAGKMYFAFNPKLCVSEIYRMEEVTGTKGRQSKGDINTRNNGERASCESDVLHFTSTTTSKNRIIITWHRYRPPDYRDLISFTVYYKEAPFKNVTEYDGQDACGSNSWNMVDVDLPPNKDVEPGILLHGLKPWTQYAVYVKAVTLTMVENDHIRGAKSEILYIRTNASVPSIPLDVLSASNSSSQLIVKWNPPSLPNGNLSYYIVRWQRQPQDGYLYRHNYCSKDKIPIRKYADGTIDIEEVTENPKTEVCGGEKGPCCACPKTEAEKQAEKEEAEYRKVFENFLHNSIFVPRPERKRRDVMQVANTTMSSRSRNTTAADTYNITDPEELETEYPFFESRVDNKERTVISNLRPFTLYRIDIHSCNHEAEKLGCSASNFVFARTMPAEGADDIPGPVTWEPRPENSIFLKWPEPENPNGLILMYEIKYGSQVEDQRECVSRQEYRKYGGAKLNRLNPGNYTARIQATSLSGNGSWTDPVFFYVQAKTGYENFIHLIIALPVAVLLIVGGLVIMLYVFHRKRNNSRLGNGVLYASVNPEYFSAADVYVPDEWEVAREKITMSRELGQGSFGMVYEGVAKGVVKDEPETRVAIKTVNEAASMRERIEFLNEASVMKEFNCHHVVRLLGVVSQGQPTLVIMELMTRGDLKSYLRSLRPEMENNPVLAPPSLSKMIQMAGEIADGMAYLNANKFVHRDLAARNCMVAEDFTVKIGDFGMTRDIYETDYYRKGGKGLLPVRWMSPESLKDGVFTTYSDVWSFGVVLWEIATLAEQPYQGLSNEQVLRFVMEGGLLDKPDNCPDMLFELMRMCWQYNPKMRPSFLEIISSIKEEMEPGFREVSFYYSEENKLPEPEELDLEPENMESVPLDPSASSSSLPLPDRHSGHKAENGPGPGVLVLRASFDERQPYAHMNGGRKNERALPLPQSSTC
Outline: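 Receptor autophosphorylation measured by DELFIA, capturing IGF-1R or IRβ and detecting with europium anti-pTyr, reported as percent of IGF-1- or insulin-stimulated signal. Compounds (30 uM to 1.5 nM) added 2 h before ligand, then 15 min stimulation (IGF-1 30 ng/ml or insulin 3 ug/ml).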

Row | Compound | IC50 (human IR (hIR)) [nM] | IC50 (human IGF1R (hIGF1R)) [nM] | IC50 [1] [nM]
1 | COc1cc2c(cc1Nc1nc(Nc3cc(F)cc(F)c3C(=O)NCC(C)C)c3cc[nH]c3n1)N(C(=O)CN(C)C)CC2 [Example 154, 2-[(2-{[1-(N,N-dimethylglycyl)-5-(methyloxy)-2,3-dihydro-1H-indol-6-yl]amino}-1H-pyrrolo[2,3-d]pyrimidin-4-yl)amino]-4,6-difluoro-N-(2-methylpropyl)benzamide] | 1.26 to 3.98 | 1.26 to 3.98 | 100 to 500
2 | COc1cc2c(cc1Nc1nc(Nc3cc(F)cc(F)c3C(=O)NCc3ccc(F)cc3)c3cc[nH]c3n1)N(C(=O)CN(C)C)CC2 [Example 155, 2-[(2-{[1-(N,N-dimethylglycyl)-5-(methyloxy)-2,3-dihydro-1H-indol-6-yl]amino}-1H-pyrrolo[2,3-d]pyrimidin-4-yl)amino]-4,6-difluoro-N-[(4-fluorophenyl)methyl]benzamide] | 1.26 to 3.98 | 1.26 to 3.98 | 100 to 500
3 | CCCNC(=O)c1c(F)cccc1Nc1nc(Nc2cc3c(cc2OC)CCN3C(=O)CN(C)C)nc2[nH]ccc12 [Example 156, 2-[(2-{[1-(N,N-dimethylglycyl)-5-(methyloxy)-2,3-dihydro-1H-indol-6-yl]amino}-1H-pyrrolo[2,3-d]pyrimidin-4-yl)amino]-6-fluoro-N-propylbenzamide] | 1.26 to 3.98 | 1.26 to 3.98 | 100 to 500
4 | COc1cc2c(cc1Nc1nc(Nc3cccc(F)c3C(=O)NCC(C)C)c3cc[nH]c3n1)N(C(=O)CN(C)C)CC2 [Example 157, 2-[(2-{[1-(N,N-dimethylglycyl)-5-(methyloxy)-2,3-dihydro-1H-indol-6-yl]amino}-1H-pyrrolo[2,3-d]pyrimidin-4-yl)amino]-6-fluoro-N-(2-methylpropyl)benzamide] | 1.26 to 3.98 | 1.26 to 3.98 | 100 to 500
5 | COc1cc2c(cc1Nc1nc(Nc3cccc(F)c3C(=O)NC(C)C)c3cc[nH]c3n1)N(C(=O)CN(C)C)CC2 [Example 158, 2-[(2-{[1-(N,N-dimethylglycyl)-5-(methyloxy)-2,3-dihydro-1H-indol-6-yl]amino}-1H-pyrrolo[2,3-d]pyrimidin-4-yl)amino]-6-fluoro-N-(1-methylethyl)benzamide] | 1.26 to 3.98 | 1.26 to 3.98 | 100 to 500
6 | CNC(=O)c1c(Nc2nc(Nc3cc4c(cc3OC)CCCN4C(=O)CN(C)C)nc3[nH]ccc23)ccc(F)c1F [Example 163, 6-[(2-{[1-(N,N-dimethylglycyl)-6-(methyloxy)-1,2,3,4-tetrahydro-7-quinolinyl]amino}-1H-pyrrolo[2,3-d]pyrimidin-4-yl)amino]-2,3-difluoro-N-methylbenzamide] | 1.26 to 3.98 | 1.26 to 3.98 | < 100
7 | CCN(C)CC(=O)N1CCc2cc(OC)c(Nc3nc(Nc4cccc(F)c4C(N)=O)c4cc[nH]c4n3)cc21 [Example 166, 2-[(2-{[1-(N-ethyl-N-methylglycyl)-5-(methyloxy)-2,3-dihydro-1H-indol-6-yl]amino}-1H-pyrrolo[2,3-d]pyrimidin-4-yl)amino]-6-fluorobenzamide] | 1.26 to 3.98 | 1.26 to 3.98 | < 100
8 | CCCN(C)CC(=O)N1CCc2cc(OC)c(Nc3nc(Nc4cccc(F)c4C(=O)NC)c4cc[nH]c4n3)cc21 [Example 167, 2-fluoro-N-methyl-6-[(2-{[5-(methyloxy)-1-(N-methyl-N-propylglycyl)-2,3-dihydro-1H-indol-6-yl]amino}-1H-pyrrolo[2,3-d]pyrimidin-4-yl)amino]benzamide] | 1.26 to 3.98 | 1.26 to 3.98 | 100 to 500
9 | CNC(=O)c1c(F)cc(Cl)cc1Nc1nc(Nc2cc3c(cc2OC)CCCN3C(=O)CN2CCCC2)nc2[nH]ccc12 [Example 174, 4-chloro-2-fluoro-N-methyl-6-[(2-{[6-(methyloxy)-1-(1-pyrrolidinylacetyl)-1,2,3,4-tetrahydro-7-quinolinyl]amino}-1H-pyrrolo[2,3-d]pyrimidin-4-yl)amino]benzamide] | 1.26 to 3.98 | 1.26 to 3.98 | 100 to 500
10 | CCN(CCO)CC(=O)N1CCc2cc(OC)c(Nc3nc(Nc4cccc(F)c4C(N)=O)c4cc[nH]c4n3)cc21 [Example 177, 2-[(2-{[1-[N-ethyl-N-(2-hydroxyethyl)glycyl]-5-(methyloxy)-2,3-dihydro-1H-indol-6-yl]amino}-1H-pyrrolo[2,3-d]pyrimidin-4-yl)amino]-6-fluorobenzamide] | 1.26 to 3.98 | 1.26 to 3.98 | 100 to 500
11 | CNC(=O)c1c(F)cccc1Nc1nc(Nc2cc3c(cc2OC)N(C(=O)CN(C)C)CC3)nc2[nH]ccc12 [Example 198, 2-[(2-{[1-(N,N-dimethylglycyl)-6-(methyloxy)-2,3-dihydro-1H-indol-5-yl]amino}-1H-pyrrolo[2,3-d]pyrimidin-4-yl)amino]-6-fluoro-N-methylbenzamide] | 1.26 to 3.98 | 1.26 to 3.98 | > 500
12 | COc1cc(N2CCN(C(C)C)CC2)ccc1Nc1nc(Nc2cccc3c2C(=O)NC3)c2cc[nH]c2n1 [Example 199, 7-[(2-{[4-[4-(1-methylethyl)-1-piperazinyl]-2-(methyloxy)phenyl]amino}-1H-pyrrolo[2,3-d]pyrimidin-4-yl)amino]-2,3-dihydro-1H-isoindol-1-one] | 1.26 to 3.98 | 1.26 to 3.98 | < 100
13 | CCCN1CCC(COc2ccc(Nc3nc(Nc4cccc(F)c4C(N)=O)c4cc[nH]c4n3)c(OC)c2)CC1 [Example 206, 2-fluoro-6-({2-[(2-(methyloxy)-4-{[(1-propyl-4-piperidinyl)methyl]oxy}phenyl)amino]-1H-pyrrolo[2,3-d]pyrimidin-4-yl}amino)benzamide] | 1.26 to 3.98 | 1.26 to 3.98 | 100 to 500
14 | COc1cc(N2CCCN(C)CC2)ccc1Nc1nc(Nc2cccc(F)c2C(N)=O)c2cc[nH]c2n1 [Example 209, 2-fluoro-6-[(2-{[4-(4-methylhexahydro-1H-1,4-diazepin-1-yl)-2-(methyloxy)phenyl]amino}-1H-pyrrolo[2,3-d]pyrimidin-4-yl)amino]benzamide] | 1.26 to 3.98 | 1.26 to 3.98 | 100 to 500

The remaining lines, values ahead:

Row | IC50 (human IR (hIR)) [nM] | IC50 (human IGF1R (hIGF1R)) [nM] | IC50 [1] [nM] | Compound
15 | 1.26 to 3.98 | 1.26 to 3.98 | < 100 | CCN(CC)CC(=O)N1CCc2cc(OC)c(Nc3nc(Nc4cccc(F)c4C(N)=O)c4cc[nH]c4n3)cc21 [Example 136, 2-[(2-{[1-(N,N-diethylglycyl)-5-(methyloxy)-2,3-dihydro-1H-indol-6-yl]amino}-1H-pyrrolo[2,3-d]pyrimidin-4-yl)amino]-6-fluorobenzamide]
16 | 0.251 to 1 | 1.26 to 3.98 | < 100 | COc1cc2c(cc1Nc1nc(Nc3cccc(F)c3C(N)=O)c3cc[nH]c3n1)N(C(=O)CN1CCCC1)CC2 [Example 138, 2-fluoro-6-[(2-{[5-(methyloxy)-1-(1-pyrrolidinylacetyl)-2,3-dihydro-1H-indol-6-yl]amino}-1H-pyrrolo[2,3-d]pyrimidin-4-yl)amino]benzamide]
17 | 1.26 to 3.98 | 1.26 to 3.98 | < 100 | CNC(=O)c1c(F)cccc1Nc1nc(Nc2cc3c(cc2OC)CCN3C(=O)CN2CCCC2)nc2[nH]ccc12 [Example 139, 2-fluoro-N-methyl-6-[(2-{[5-(methyloxy)-1-(1-pyrrolidinylacetyl)-2,3-dihydro-1H-indol-6-yl]amino}-1H-pyrrolo[2,3-d]pyrimidin-4-yl)amino]benzamide]
18 | 1.26 to 3.98 | 1.26 to 3.98 | > 500 | COc1cc2c(cc1Nc1nc(Nc3cccc(F)c3C(N)=O)c3cc[nH]c3n1)N(C(=O)CN)CC2 [Example 141, 2-fluoro-6-[(2-{[1-glycyl-5-(methyloxy)-2,3-dihydro-1H-indol-6-yl]amino}-1H-pyrrolo[2,3-d]pyrimidin-4-yl)amino]benzamide]
19 | 1.26 to 3.98 | 1.26 to 3.98 | < 100 | CNCC(=O)N1CCc2cc(OC)c(Nc3nc(Nc4cccc(F)c4C(N)=O)c4cc[nH]c4n3)cc21 [Example 142, 2-fluoro-6-[(2-{[1-(N-methylglycyl)-5-(methyloxy)-2,3-dihydro-1H-indol-6-yl]amino}-1H-pyrrolo[2,3-d]pyrimidin-4-yl)amino]benzamide]
20 | 1.26 to 3.98 | 1.26 to 3.98 | 100 to 500 | COc1cc2c(cc1Nc1nc(Nc3cc(F)cc(F)c3C(=O)NC(C)C)c3cc[nH]c3n1)N(C(=O)CN(C)C)CC2 [Example 153, 2-[(2-{[1-(N,N-dimethylglycyl)-5-(methyloxy)-2,3-dihydro-1H-indol-6-yl]amino}-1H-pyrrolo[2,3-d]pyrimidin-4-yl)amino]-4,6-difluoro-N-(1-methylethyl)benzamide]
21 | 0.251 to 1 | 1.26 to 3.98 | < 100 | COc1cc2c(cc1Nc1nc(Nc3ccc(F)c(F)c3C(N)=O)c3cc[nH]c3n1)N(C(=O)CN(C)C)CCC2 [Example 162, 6-[(2-{[1-(N,N-dimethylglycyl)-6-(methyloxy)-1,2,3,4-tetrahydro-7-quinolinyl]amino}-1H-pyrrolo[2,3-d]pyrimidin-4-yl)amino]-2,3-difluorobenzamide]
22 | 0.251 to 1 | 1.26 to 3.98 | 100 to 500 | COc1cc2c(cc1Nc1nc(Nc3cccc(F)c3C(N)=O)c3cc[nH]c3n1)CCN2C(=O)CN(C)C [Example 197, 2-[(2-{[1-(N,N-dimethylglycyl)-6-(methyloxy)-2,3-dihydro-1H-indol-5-yl]amino}-1H-pyrrolo[2,3-d]pyrimidin-4-yl)amino]-6-fluorobenzamide]
